Assay results as given in ChEMBL document CHEMBL5154646, “Structure-guided optimization of 1H-imidazole-2-carboxylic acid derivatives affording potent VIM-Type metallo-β-lactamase inhibitors” (Eur J Med Chem, 2022).

Legend:
Parameters in all cases: species or system Bacteria
[1] = Inhibition of bacterial VIM-2 (27 to 266 residues) expressed in Escherichia coli Transetta (DE3) using FC-5 as substrate preincubated with enzyme for 10 mins followed by substrate addition by fluorescence based analysis
[2] = Inhibition of bacterial IMP-1 (1 to 246 residues) expressed in Escherichia coli Transetta (DE3) using FC-5 as substrate preincubated with enzyme for 10 mins followed by substrate addition by fluorescence based analysis
[3] = Inhibition of bacterial NDM-1 (1 to 270 residues) expressed in Escherichia coli Transetta (DE3) using FC-5 as substrate preincubated with enzyme for 10 mins followed by substrate addition by fluorescence based analysis
[4] = Inhibition of bacterial recombinant full length N-terminal-TEV-His6-tagged VIM-5 expressed in Escherichia coli Transetta using FC-5 as substrate preincubated with enzyme for 10 mins followed by substrate addition by fluorescence based analysis
[5] = Inhibition of bacterial recombinant full length C-terminal-TEV-His6-tagged VIM-1 expressed in Escherichia coli Transetta using FC-5 as substrate preincubated with enzyme for 10 mins followed by substrate addition by fluorescence based analysis

IC50 [1] [µM] | IC50 [2] [µM] | IC50 [3] [µM] | IC50 [4] [µM] | IC50 [5] [µM] | Structure (SMILES)
7.76 | > 300 | > 300 | > 300 | > 300 | Nc1cccc(Cn2ccnc2C(=O)O)c1
65.4 | > 300 | > 300 | 30.9 | > 300 | O=C(O)c1ncc[nH]1
42.7 | > 300 | > 300 | > 300 | > 300 | O=C(O)c1nccn1Cc1ccoc1
32 | > 300 | > 300 | > 300 | > 300 | CCn1ccnc1C(=O)O
0.77 | > 300 | > 300 | 22 | 30.5 | O=C(O)c1nccn1Cc1cccnc1Cl
5.54 | > 300 | > 300 | > 300 | > 300 | O=C(O)c1nccn1Cc1ccccn1
2.04 | > 300 | > 300 | 31.6 | 21.3 | CCC(C)n1ccnc1C(=O)O (stereo not given)
68.1 | > 300 | > 300 | 104 | 26 | O=C(O)c1nccn1C1CNC1
0.13 | 110 | 34.1 | 0.18 | 15.5 | O=C(O)c1ncc(C2CC2)n1Cc1ccccc1
118 | > 300 | > 300 | > 300 | > 300 | NC(=O)Cn1ccnc1C(=O)O
13.7 | 4.05 | > 300 | 90.5 | > 300 | C=CCCn1cc(C)nc1C(=O)O
75.2 | > 300 | > 300 | > 300 | > 300 | O=C(O)c1nccn1CCO
10.1 | > 300 | > 300 | 133 | 21.2 | CC(C)n1ccnc1C(=O)O
22.2 | > 300 | > 300 | > 300 | > 300 | N#CCCn1ccnc1C(=O)O
52.4 | > 300 | > 300 | 32.5 | > 300 | CC(C(=O)O)n1ccnc1C(=O)O (stereo not given)
19.4 | > 300 | > 300 | 47.1 | 29.7 | O=C(O)c1nccn1C1CC1
5.79 | > 300 | > 300 | 23.4 | > 300 | CCc1ccc(Cn2ccnc2C(=O)O)cc1
11.8 | 65.6 | > 300 | 15.6 | 47.1 | N#CCCCn1ccnc1C(=O)O
> 300 | > 300 | > 300 | > 300 | > 300 | COC(=O)C(C)n1ccnc1C(=O)O (stereo not given)
2.67 | 58.4 | > 300 | 18.9 | 15.3 | CCCn1ccnc1C(=O)O
30.2 | > 300 | > 300 | > 300 | > 300 | Nc1ccc(Cn2ccnc2C(=O)O)cc1
42.9 | > 300 | > 300 | 68.2 | > 300 | NCCCn1ccnc1C(=O)O
46.4 | > 300 | > 300 | > 300 | > 300 | C=CCn1ccnc1C(=O)O
33.5 | > 300 | > 300 | 83.9 | > 300 | Cn1cc(Cn2ccnc2C(=O)O)cn1
> 300 | > 300 | > 300 | > 300 | 227 | Cn1ccnc1C(=O)O
11.8 | 161 | > 300 | > 300 | 32.1 | O=C(O)c1nccn1C1CCC1
